PubChem BioAssay (NCI)
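Test compounds were applied to cells in 96-well plates for 48 hours at 5 doses. The concentration for 50% growth inhibition is given as GI50. The concentration for full growth arrest is given as TGI.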

Legend:
Experiment in all cases: NCI anticancer screen, dose series, 48 h
T-47D breast = test system: T-47D breast
SK-MEL-28 melanoma = test system: SK-MEL-28 melanoma
MALME-3M melanoma = test system: MALME-3M melanoma
UACC-257 melanoma = test system: UACC-257 melanoma
OVCAR-8 ovarian = test system: OVCAR-8 ovarian
SNB-78 CNS = test system: SNB-78 CNS
DLD-1 colon = test system: DLD-1 colon
LXFL 529 NSCLC = test system: LXFL 529 NSCLC
KM20L2 colon = test system: KM20L2 colon

| SMILES | TGI (T-47D breast) [µM] | TGI (SK-MEL-28 melanoma) [µM] | TGI (MALME-3M melanoma) [µM] | TGI (UACC-257 melanoma) [µM] | TGI (OVCAR-8 ovarian) [µM] | GI50 (SK-MEL-28 melanoma) [µM] | GI50 (MALME-3M melanoma) [µM] | GI50 (UACC-257 melanoma) [µM] | GI50 (OVCAR-8 ovarian) [µM] | GI50 (T-47D breast) [µM] | TGI (SNB-78 CNS) [µM] | TGI (DLD-1 colon) [µM] | TGI (LXFL 529 NSCLC) [µM] | TGI (KM20L2 colon) [µM] |
| --- | --- | --- | --- | --- | --- | --- | --- | --- | --- | --- | --- | --- | --- | --- |
| CC(=O)O[C@H]1C(=O)[C@@]2(C)[C@H]([C@H](OC(=O)c3ccccc3)[C@@]3(O)C[C@H](O)C(C)=C1C3(C)C)[C@]1(OC(C)=O)CO[C@@H]1C[C@@H]2O | > 100 | > 100 | > 100 | > 100 | > 100 | – | – | – | – | – | – | – | – | – |
| C/C=C(/C)C(=O)OC1C=C(CO)C(=O)C(OC(=O)C(C)(O)C(C)Cl)C1C(C)C (stereo unspecified) | – | 2.98 | 1.85 | 3.32 | 5.3 | 1.46 | 0.474 | 1.42 | 1.56 | – | – | – | – | – |
| C=C1NC(=O)C(CC(C(=O)C(=O)Nc2c(C)cccc2C(C)(C)C)C(=O)c2ccc3ccccc3c2)C(=O)N1 (stereo unspecified) | > 100 | > 100 | – | > 100 | > 100 | – | – | – | – | – | – | – | – | – |
| CC1CCc2c(c(CC3CC(=O)NC(=O)C3)nn2-c2ccccc2)C1 (stereo unspecified) | > 100 | > 100 | > 100 | > 100 | > 100 | – | – | – | – | – | – | – | – | – |
| COc1cc2ncn(-c3cc(OCc4ccccc4C(F)(F)F)c(C(C)=O)s3)c2cc1OC | > 25 | > 25 | > 25 | > 25 | > 25 | > 25 | > 16.8 | > 25 | > 25 | > 25 | – | – | – | – |
| CCCCCCCCCOC(=S)NCCCCC | – | > 100 | 63.2 | 62.1 | > 100 | – | – | – | – | – | > 100 | > 100 | > 100 | 59.3 |
| CCCN1C(=O)/C(=C/c2ccc(O)cc2)SC1=Nc1ccc(OC)cc1 | – | 41 | – | 31.7 | 37.1 | 19.4 | – | 17.3 | 18.2 | – | – | – | – | – |
| CCc1nc2cc(/C=C/C(=O)NO)ccc2c(=O)n1CCc1ccc(F)cc1 | 6.23 | 4.15 | 12.4 | 5.92 | – | 1.85 | 1.83 | 2.24 | – | 0.629 | – | – | – | – |
| Cc1nnc(-c2ccc(C)c(-c3ccc(C(=O)NCc4ccc(Cl)cc4)cc3)c2)o1 | > 19.2 | > 25 | 24.9 | > 25 | > 25 | 14.3 | 6.15 | 8.07 | > 25 | 4.13 | – | – | – | – |
| COC(=O)C(C(=O)C(=O)Nc1ccc(OC)cc1[N+](=O)[O-])c1nc2cc(C)c(C)cc2[nH]c1=O (stereo unspecified) | – | > 100 | > 100 | > 100 | > 100 | – | – | – | – | – | > 100 | > 100 | > 100 | > 100 |
| CC[C@@H](C)Nc1cc(C(=O)NC2CC3CCC(C2)N3c2ccc(C(=O)C3CC3)cn2)c(C)cc1C(N)=O (stereo partly specified) | 36 | > 100 | > 75.5 | 32 | > 100 | 0.0519 | 0.0383 | 0.04 | 0.047 | 0.0378 | – | – | – | – |
| COC(=O)c1ccc2c(c1)c1c(C)c3ccncc3c(C)c1n2C | > 100 | 50.1 | 11.2 | – | > 100 | 0.441 | 0.201 | – | 0.121 | 0.661 | – | – | – | – |
| CO[C@@H]1[C@H]2[C@@H](C)c3ccoc3C[C@@H]2[C@@]2(C)CC[C@H](OC(=O)c3ccccc3)[C@](C)(C(=O)O)[C@]2(O)[C@@H]1OC(=O)c1ccccc1 | – | > 50 | – | 40.7 | > 50 | 14.5 | – | 15.9 | 14.3 | – | – | – | – | – |
| CCOC(=O)c1c2cccccc2n2c(=O)cc(C)nc12 | – | > 100 | – | > 100 | > 100 | – | – | – | – | – | > 100 | – | > 100 | > 100 |
| Cc1cc(NNC(=O)c2ccccc2O)nc(Nc2nc3ccccc3o2)n1 | 21.5 | 13.3 | 15.5 | 11.5 | 12.8 | 1.64 | 2.98 | 3.25 | 1.9 | 2.92 | – | – | – | – |
| CN1CCN(Cc2ccc(NC(=O)c3cncc(C#Cc4cnn5ccccc45)c3)cc2C(F)(F)F)CC1 | 5.78 | 3.53 | 1.45 | 3 | 4.68 | 1.22 | 0.604 | 1.15 | 1.22 | 1.4 | – | – | – | – |
| Nc1nc(N)c(N=Nc2ccc(C(=O)O)c(O)c2)c(N)n1 | – | > 100 | > 100 | > 100 | > 100 | – | – | – | – | – | – | – | – | – |
| CCCCCCCCCCCCCC(=O)OCC1OC(n2cc(F)c(=O)[nH]c2=O)C(N)C(OC(=O)CCCCCCCCCCCCC)C1O (stereo unspecified) | – | > 100 | > 100 | > 100 | > 100 | – | – | – | – | – | > 100 | – | > 100 | > 100 |
| CCOc1c(C#N)c2c(N)ncnc2n1C1OC(CO)C(O)C1O (stereo unspecified) | 20.2 | 11.8 | 24.2 | > 77.3 | > 100 | 2.52 | 3.62 | 13.7 | 4.81 | 1.98 | – | – | – | – |
| COC(=O)C(=O)C(C(=O)C(=O)Nc1ccc(C)cc1)c1nc2ccc(C(=O)c3ccccc3)cc2[nH]c1=O (stereo unspecified) | > 100 | > 100 | > 100 | > 100 | > 100 | – | – | – | – | – | – | – | – | – |
| N#Cc1c(N)nc(N2CCSCC2)c(C#N)c1-c1ccc(O)cc1 | 85.8 | 35 | 94.4 | 52.6 | > 100 | 15.5 | 15.2 | 21.9 | 33.6 | 12.8 | – | – | – | – |
| CC(=O)C1CCC2C3CC=C4CC(SC(=N)N)CCC4(C)C3CCC12C (stereo unspecified) | 4.85 | – | – | 3.34 | – | – | – | 1.69 | – | 2.02 | – | – | – | – |
| C1CCN2CC3CCCN4CCCC(C2C1)C34 (stereo unspecified) | > 100 | > 100 | > 100 | > 100 | > 100 | – | – | – | – | – | – | – | – | – |
| CC(CCCC1SCC2NC(=O)NC21)C(=O)O (stereo unspecified) | > 100 | > 100 | > 100 | – | > 100 | – | – | – | – | – | – | – | – | – |
| O=C(Nc1ccc2c(c1)OCO2)C(=O)c1c[nH]c2cc(F)ccc12 | > 100 | 5.54 | 8.61 | 15.5 | 23.6 | 2.05 | 3 | 1.7 | 3.89 | 1.75 | – | – | – | – |
